This note sets out measurements from PMC4865820, “Branched Peptide, B2088, Disrupts the Supramolecular Organization of Lipopolysaccharides and Sensitizes the Gram-negative Bacteria” (Scientific Reports, 2016).

SMILES strings stand for the structures. Positions of bridges follow the written chain, without caps; N, C: chain ends. Non-standard residues stand in square brackets, D forms with d. Residues, ends and D or L forms follow the SMILES beside them. Chains are numbered I, II in the order given. Bip = N[C@@H](Cc1ccc(-c2ccccc2)cc1)C(=O)O

The subject of one assay is K. pneumonia 4299. In words: microbe, parasite or virus in culture. The conditions noted are these: 24 h. It is filed as cell-based, K. pneumoniae. Here is the method: (§1) MIC of each peptide was determined using the microdilution method in a 96 well microtitre plates (SPL Life Sciences Co., Ltd, Korea). Two-fold serial dilutions of each peptide in Mueller-Hinton Broth (MHB) was prepared from a 1 mg/ml stock solution of the peptide in the same broth, to obtain a final concentration in the range of 0.0976–50 μg/ml in each well. Bacterial suspensions (P. aeruginosa ATCC 27853, P. aeruginosa 4877, P. aeruginosa 23155, K. pneumoniae ATCC 10031 and K. pneumoniae 4299) were prepared by suspending the overnight cultured bacteria in saline and adjusting the inoculum to ~10^8 colony forming units (CFU) per ml. A further 150-fold dilution was then prepared in MHB to achieve a final cell density of 10^5–10^6 CFU/ml. In each well, 100 μl of inoculum was mixed with the equal volume of peptides at their 2× concentration. Positive and negative controls contained 200 μl of inoculum (without any peptide) and broth alone (no peptide/inoculum) respectively. Another negative control in which MHB containing 200 μl of peptide alone in its highest concentration tested (50 μg/ml) was also included to ensure that the optical density measured in the test wells was not due to turbidity of the peptides in solution. The 96 well polystyrene plates were then incubated at 37 °C for 24 h and the optical density at 600 nm (OD600) was measured every 30 min continuously using a TECAN microplate reader (TECAN Infinite 200, Austria). All the experiments were performed in two independent duplicates and the MIC was determined as the lowest peptide concentration in which no visible growth was observed.

The next assay deals with P. aeruginosa ATCC 9027. Nature of the assay: Outer membrane permeability assay (NPN). It is filed as cell-based. To be noted: no unit in table; Fig. S5 axis [Peptide], μM; 10 μM NPN, 5 mM HEPES pH 7.4, ex 355/em 405 nm; average of two titrations; read-out: PC50 (peptide concentration for half-maximal NPN intensity, OM permeability). The procedure:
The ability of each peptide to permeabilize the OM of Gram-negative organisms was determined using the hydrophobic fluorescent probe 1-N-phenylnaphthylamine (NPN) as previously reported. P. aeruginosa ATCC 9027 cells from an overnight MHB culture were harvested after centrifuging at 3000 rpm for 10 minutes. The pellet was washed twice, suspended in 5 mM HEPES (N- 2-hydroxyethylpiperazine-N’-2 ethanesulfonic acid) buffer (pH 7.4) and adjusted to an OD600 of 0.200. A suspension containing 600 μl of bacteria cells and 1 μl of a concentrated stock solution of NPN was mixed into a 10 mm stirred quartz cuvette so that the final concentration of the probe remained 10 μM. Aliquots containing 1 μl of each peptide in various concentrations (100, 50, 25, 15, 10, 5, 2.5 and 1 μg/ml) were added upon NPN dye stabilization. The fluorescence intensity was monitored using a Quanta Master spectrophotometer with a constant slit width of 0.5 nm, excitation and emission wavelengths set at 355 nm and 405 nm respectively. The peptide concentration required for half-maximal intensity (PC50) was determined by sigmoidal curve fitting using Graphpad Prism software. The experimental data is average of two independent titration experiments.

Assay [1] relates to P. aeruginosa ATCC 27853. The assay is classed as cell-based. The conditions noted are these: ATCC 27853; for Fractional inhibitory concentration of peptide/PMB, combination with Genta: first number in parenthesis; for Fractional inhibitory concentration of antibiotic, Genta combination: second number in parenthesis. The procedure: (§2) The synergism between peptides with conventional antibiotics was evaluated using checkerboard assays. For a comparison polymyxin B (PMB) was also tested against each antibiotic. From their stock solutions, two-fold dilutions of each antibiotic and peptide to 1× MIC were prepared in MHB. 50 μl of each peptide concentration was added into the wells of a 96-well polystyrene plates (SPL Life Sciences Co. Ltd, Korea) in a horizontal orientation and the same volume of each antibiotic concentration were then added in a vertical orientation. Bacterial suspensions were prepared in MHB to yield final cell density of ~10^6 CFU/ml and 100 μl of bacterial suspension was mixed with each peptide-antibiotic combinations. This procedure was repeated for wells containing 200 μl of peptide alone and 200 μl of antibiotic alone in various concentrations. The positive and negative controls contained 200 μl of inoculum and MHB alone respectively. The plates were incubated at 37 °C for 24 hours and the optical density at 600 nm (OD600) was monitored as before. Fractional inhibitory concentration index (FICI) for all antibiotic- peptide combinations was calculated through the summation of (MIC of peptide in the combination/ MIC of peptide alone) and (MIC of antibiotics in combination/MIC of antibiotic alone). The experiments were performed in two independent duplicates and the combinations that gave the lowest FICI values was reported.

A further assay has as its system P. aeruginosa DR4877/07. The assay is classed as cell-based. To be noted: for Fractional inhibitory concentration of peptide/PMB, combination with Chloarm / Fractional inhibitory concentration of peptide/PMB, combination with Erythro / Fractional inhibitory concentration of peptide/PMB, combination with Levo / Fractional inhibitory concentration of peptide/PMB, combination with Tobra: first number in parenthesis; for Fractional inhibitory concentration of antibiotic, Chloarm combination / Fractional inhibitory concentration of antibiotic, Erythro combination / Fractional inhibitory concentration of antibiotic, Levo combination / Fractional inhibitory concentration of antibiotic, Tobra combination: second number in parenthesis. The procedure: as §2

In a further assay the test system is K. pneumoniae ATCC10031. It is filed as cell-based. To be noted: ATCC10031, 24 h. The procedure:
as §1

A further assay concerns P. aeruginosa 23155. The assay is classed as cell-based. The conditions noted are these: 23155, 24 h. Here is the method: as §1
Assay [2] has as its system LPS (E. coli serotype 055:B5). Nature of the assay: BODIPY TR cadaverine (BC) displacement assay with LPS. It is filed as binding. To be noted: no unit in table; ED50 values in μM; 5 mM HEPES pH 7.4; duplicates; read-out: BC50 (LPS binding). An excerpt:
To investigate the interaction of B2088 with LPS, we performed the BODIPY TR cadaverine (BC) displacement assay reported by Wood et al.[22]. The probe binds to the lipid A part of the LPS with moderate affinity and can be displaced by putative LPS-binding molecules. The method was used to probe the affinity of polycationic molecules and LPS binding proteins. First, we determined the affinity of polymyxin B (PMB), a lipopeptide cyclic antibiotic which has a high affinity for LPS. […] Figure 1a,b show the concentration-dependent displacement of LPS/lipid A-bound BC upon addition of B2088. […] To confirm the importance of branching, we determined the BC50 for a linear retrodimer having the amino acid sequence, […] (Fig. 1d). The determined value was 2-fold higher (3.9 ± 0.1 μM) than that of B2088, confirming a weaker affinity of the linear peptide.
The BC displacement assay was used to determine the ability of each peptide to bind to LPS. The florescent probe, BODIPY TR cadaverine (BC) was purchased from Molecular Probes/ Invitrogen (USA). A stock solution containing 1 mg/ml of LPS (E. coli serotype 055:B5) was prepared in dimethyl sulfoxide (DMSO) and another stock solution containing 1 mg/ml of BC dye was prepared in 5 mM HEPES buffer (pH 7.4). The optimum saturation concentration of BC:LPS ratio was standardized following the protocol provided by Wood et al. (22). From the BC stock, 240 μl was mixed with 500 μl from the LPS stock solution in 5 mM HEPES buffer (pH 7.4) to prepare 20 ml of BC:LPS mixture. Two-fold serial dilutions of each peptide in 5 mM HEPES buffer (pH 7.4) was prepared from their 1 mg/ml stock solutions to obtain a final range of 0.02–25.6 μM. The BC:LPS mixture was added to 100 μl of each peptide congener in a 1:1 ratio in each well of a 96-well black Costar™ polystyrene microtitre plate (Corning Incorporated, NY, USA). The maximum fluorescence intensity (Fmax) was determined using a mixture containing 100 μl PMB (50 μg/ml) and 100 μl BC:LPS solution, as PMB is considered the ‘gold standard’ for LPS-sequestering agents. The minimum fluorescence intensity (F0) was measured using 200 μl of BC:LPS mixture to determine the background noise for this experiment. Fluorescence measurements for each peptide (F) were determined using a microplate reader (Model: TECAN Infinite 200, Austria) with excitation and emission wavelengths set at 580 nm and 620 nm respectively. The percentage of BC displacement was then calculated using the formula: […]
The experiments were performed in duplicates and the effective concentration required for 50% displacement of BC dye (ED50) from LPS with respect to PMB was determined by curve fitting using Graphpad Prism (CA, USA). A higher ED50 value for the peptide indicates a lower affinity for LPS.

The subject of assay [3] is P. aeruginosa ATCC 27853. In words: microbe, parasite or virus in culture. The assay is classed as cell-based. The conditions noted are these: ATCC 27853, 24 h. Here is the method:
as §1

On to `C[C@H](NC(=O)[C@H](C)NC(=O)[C@H](CCCCN)NC(=O)[C@H](CCCNC(=N)N)NC(=O)CNC(=O)[C@@H](N)CCCNC(=N)N)C(=O)N[C@@H](CCCNC(=N)N)C(=O)N[C@@H](CCCNC(=N)N)C(=O)NCCCC[C@H](NC(=O)[C@H](CCCNC(=N)N)NC(=O)[C@H](CCCNC(=N)N)NC(=O)[C@H](C)NC(=O)[C@H](C)NC(=O)[C@H](CCCCN)NC(=O)[C@H](CCCNC(=N)N)NC(=O)CNC(=O)[C@@H](N)CCCNC(=N)N)C(=O)N[C@@H](CCCCN)C(=O)O` (I: H-RGRKAARRKK-OH / II: H-RGRKAARR; amide I:9-II:C; N-terminus and C-terminus assumed), for which, in the assay on K. pneumonia 4299, the “Minimum Inhibitory Concentration against K. pneumonia 4299” value came to 23 µM. Moreover, the EC50 with P. aeruginosa ATCC 9027 turned out to be 21.7 ± 0.8 µM. For the same compound, in the assay on P. aeruginosa ATCC 27853 [1], the “Fractional inhibitory concentration of peptide/PMB, combination with Genta” value was found to be 0.5 and the “Fractional inhibitory concentration of antibiotic, Genta combination” value is listed as 0.06. In addition, in the assay with P. aeruginosa DR4877/07, the “Fractional inhibitory concentration of peptide/PMB, combination with Chloarm” value turned out to be 0.5; the “Fractional inhibitory concentration of peptide/PMB, combination with Erythro” value was “(0.5,0.5)”; the “Fractional inhibitory concentration of peptide/PMB, combination with Levo” value turned out to be 0.5; the “Fractional inhibitory concentration of peptide/PMB, combination with Tobra” value is given as 0.5. Besides, in the assay on P. aeruginosa DR4877/07, the “Fractional inhibitory concentration of antibiotic, Chloarm combination” value is reported as 0.13; the “Fractional inhibitory concentration of antibiotic, Erythro combination” value is “(0.5,0.5)”; the “Fractional inhibitory concentration of antibiotic, Levo combination” value amounted to 0.25; the “Fractional inhibitory concentration of antibiotic, Tobra combination” value came out at 0.25. For the same compound, the “Minimum Inhibitory Concentration against K. pneumoniae ATCC10031” value with K. pneumoniae ATCC10031 was determined as 11.5 µM. In addition, in the assay on P. aeruginosa 23155, the “Minimum Inhibitory Concentration against P. aeruginosa 23155” value worked out at 11.5 µM. Moreover, the EC50 in assay [2] turned out to be 2.1 ± 0.2 µM. Besides, in the assay with P. aeruginosa ATCC 27853 [3], the “Minimum Inhibitory Concentration against P. aeruginosa ATCC 27853” value is 11.5 µM.
`N=C(N)NCCC[C@H](NC(=O)CNC(=O)[C@@H](N)CCCNC(=N)N)C(=O)N[C@@H](CCCCN)C(=O)N[C@@H](Cc1ccc(-c2ccccc2)cc1)C(=O)N[C@@H](Cc1ccc(-c2ccccc2)cc1)C(=O)N[C@@H](CCCNC(=N)N)C(=O)N[C@@H](CCCNC(=N)N)C(=O)NCCCC[C@H](NC(=O)[C@H](CCCNC(=N)N)NC(=O)[C@H](CCCNC(=N)N)NC(=O)[C@H](Cc1ccc(-c2ccccc2)cc1)NC(=O)[C@H](Cc1ccc(-c2ccccc2)cc1)NC(=O)[C@H](CCCCN)NC(=O)[C@H](CCCNC(=N)N)NC(=O)CNC(=O)[C@@H](N)CCCNC(=N)N)C(=O)N[C@@H](CCCCN)C(=O)O` [(RGRKFbiFbiRR)2KK] (I: H-RGRK[Bip][Bip]RRKK-OH / II: H-RGRK[Bip][Bip]RR; amide I:9-II:C; N-terminus and C-terminus assumed): the “Minimum Inhibitory Concentration against K. pneumonia 4299” value in the assay with K. pneumonia 4299 was determined as 19.6 µM. In the assay on P. aeruginosa ATCC 9027, the EC50 turned out to be 22.2 ± 1.6 µM. In the assay with P. aeruginosa ATCC 27853 [1], the “Fractional inhibitory concentration of peptide/PMB, combination with Genta” value is reported as 0.5 and the “Fractional inhibitory concentration of antibiotic, Genta combination” value came to 0.06. For the same compound, in the assay with P. aeruginosa DR4877/07, the “Fractional inhibitory concentration of peptide/PMB, combination with Chloarm” value turned out to be 0.5; the “Fractional inhibitory concentration of peptide/PMB, combination with Erythro” value is “(0.5,0.5)”; the “Fractional inhibitory concentration of peptide/PMB, combination with Levo” value is on record as “(0.5,0.5)”; the “Fractional inhibitory concentration of peptide/PMB, combination with Tobra” value is listed as “(0.25,0.25)”. Moreover, in the assay with P. aeruginosa DR4877/07, the “Fractional inhibitory concentration of antibiotic, Chloarm combination” value is reported as 0.06; the “Fractional inhibitory concentration of antibiotic, Erythro combination” value is on record as “(0.5,0.5)”; the “Fractional inhibitory concentration of antibiotic, Levo combination” value was “(0.5,0.5)”; the “Fractional inhibitory concentration of antibiotic, Tobra combination” value is “(0.25,0.25)”. The “Minimum Inhibitory Concentration against K. pneumoniae ATCC10031” value in the assay on K. pneumoniae ATCC10031 stood at 9.8 µM. The “Minimum Inhibitory Concentration against P. aeruginosa 23155” value with P. aeruginosa 23155 worked out at 4.9 µM. Besides, the EC50 in assay [2] came to 2.33 ± 0.06 µM. Moreover, in the assay on P. aeruginosa ATCC 27853 [3], the “Minimum Inhibitory Concentration against P. aeruginosa ATCC 27853” value came to 9.8 µM.
